Measured values taken from the supplement of paper PMC10307832.

Assays:
Experiment in all cases: relative viability (nuclei count vs DMSO), 5 days (fraction); higher = more cells survive
[1] = compound: COc1cc2nc(N3CCCN(C)CC3)nc(NC3CCN(Cc4ccccc4)CC3)c2cc1OC + CC(=O)Nc1cccc(-n2c(=O)n(C3CC3)c(=O)c3c(Nc4ccc(I)cc4F)n(C)c(=O)c(C)c32)c1 [Trametinib] (partner 0.02 µM)
Procedure, shortened: (§1)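 Medians of duplicate plates are given as relative viability. That measure is the nuclei count in treated wells divided by the count in vehicle wells. Counts were taken on 4× images of lung cancer cell lines in 1536-well plates, 5 days after pin-tool dosing the day after seeding with one drug alone or a fixed anchor-drug dose plus five library-drug doses (not always all listed) in √10 steps.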

[2] = compound: COc1cc2nc(N3CCCN(C)CC3)nc(NC3CCN(Cc4ccccc4)CC3)c2cc1OC + C[C@]1(O)C[C@@H](c2nc(-c3ccc4ccc(-c5ccccc5)nc4c3)c3c(N)nccn32)C1 [Linsitinib] (partner 1 µM)
Procedure, shortened: as §1

[3] = compound: COc1cc2nc(N3CCCN(C)CC3)nc(NC3CCN(Cc4ccccc4)CC3)c2cc1OC + CC(=O)c1c(C)c2cnc(Nc3ccc(N4CCNCC4)cn3)nc2n(C2CCCC2)c1=O [Palbociclib] (partner 0.5 µM)
Procedure, shortened: as §1

[4] = compound: COc1cc2nc(N3CCCN(C)CC3)nc(NC3CCN(Cc4ccccc4)CC3)c2cc1OC + Cc1nc(Nc2ncc(C(=O)Nc3c(C)cccc3Cl)s2)cc(N2CCN(CCO)CC2)n1 [Dasatinib] (partner 0.075 µM)
Procedure, shortened: as §1

[5] = compound: COc1cc2nc(N3CCCN(C)CC3)nc(NC3CCN(Cc4ccccc4)CC3)c2cc1OC + CC1(C)CCC(c2ccc(Cl)cc2)=C(CN2CCN(c3ccc(C(=O)NS(=O)(=O)c4ccc(N[C@H](CCN5CCOCC5)CSc5ccccc5)c(S(=O)(=O)C(F)(F)F)c4)cc3)CC2)C1 [Navitoclax] (partner 0.5 µM)
Procedure, shortened: as §1

| Cell Line | relative viability ([1]; first compound 0.2 µM) | relative viability ([1]; first compound 0.6325 µM) | relative viability ([1]; first compound 2 µM) | relative viability ([1]; first compound 6.325 µM) | relative viability ([2]; first compound 0.2 µM) | relative viability ([2]; first compound 0.6325 µM) | relative viability ([2]; first compound 2 µM) | relative viability ([2]; first compound 6.325 µM) | relative viability ([3]; first compound 0.2 µM) | relative viability ([3]; first compound 0.6325 µM) | relative viability ([3]; first compound 2 µM) | relative viability ([3]; first compound 6.325 µM) | relative viability ([4]; first compound 0.2 µM) | relative viability ([4]; first compound 0.6325 µM) | relative viability ([4]; first compound 2 µM) | relative viability ([4]; first compound 6.325 µM) | relative viability ([5]; first compound 0.2 µM) | relative viability ([5]; first compound 0.6325 µM) | relative viability ([5]; first compound 2 µM) | relative viability ([5]; first compound 6.325 µM) |
| --- | --- | --- | --- | --- | --- | --- | --- | --- | --- | --- | --- | --- | --- | --- | --- | --- | --- | --- | --- | --- |
| 201T | 0.701 | 0.702 | 0.71 | 0.675 | 1.06 | 1.03 | 1.04 | 1 | 0.375 | 0.361 | 0.354 | 0.365 | 0.573 | 0.495 | 0.549 | 0.557 | 1.2 | 1.2 | 1.23 | 1.15 |
| A549 |  |  |  |  | 0.648 | 0.549 | 0.713 | 0.684 |  |  |  |  |  |  |  |  | 1.24 | 1.13 | 1.14 | 1.06 |
| A-427 | 0.756 | 0.677 | 0.739 | 0.674 | 1.13 | 1.06 | 1.13 | 1.18 | 0.533 | 0.503 | 0.521 | 0.485 | 0.64 | 0.707 | 0.749 | 0.651 | 1.04 | 0.966 | 1 | 0.948 |
| ABC-1 |  |  |  |  | 0.815 | 0.66 | 0.871 | 0.936 | 0.718 | 0.682 | 0.754 | 0.6 | 0.531 | 0.525 | 0.568 | 0.581 |  |  |  |  |
| BEN | 1.06 | 1.04 | 1.02 | 1.1 | 0.914 | 0.949 | 1.04 | 1.01 | 0.437 | 0.471 | 0.473 | 0.476 | 0.384 | 0.389 | 0.36 | 0.351 | 0.0596 | 0.0723 | 0.0708 | 0.0777 |
| CAL-12T | 0.324 | 0.329 | 0.302 | 0.266 | 0.745 | 0.829 | 0.944 | 0.726 | 0.4 | 0.55 | 0.482 | 0.46 | 0.37 | 0.325 | 0.54 | 0.294 | 1.28 | 1.23 | 1.27 | 1.19 |
| COR-L23 | 0.635 | 0.466 | 0.748 | 0.638 | 0.966 | 1.02 | 1.05 | 1 | 0.34 | 0.266 | 0.362 | 0.265 | 0.57 | 0.476 | 0.559 | 0.519 | 1.05 | 1.08 | 1.15 | 1.08 |
| COR-L 105 | 0.429 | 0.515 | 0.403 | 0.439 | 1.09 | 0.888 | 0.833 | 0.628 | 0.375 | 0.398 | 0.364 | 0.396 | 0.338 | 0.472 | 0.328 | 0.25 | 0.925 | 0.749 | 0.938 | 0.486 |
| Calu-6 |  |  |  |  | 0.881 | 0.903 | 1.02 | 0.962 |  |  |  |  |  |  |  |  | 0.84 | 0.809 | 0.763 | 0.602 |
| ChaGo-K-1 | 0.919 | 0.882 | 0.932 | 0.887 |  |  |  |  | 0.883 | 0.979 | 0.933 | 0.902 | 0.514 | 0.617 | 0.592 | 0.584 | 0.987 | 1.05 | 1.13 | 0.72 |
| EBC-1 |  |  |  |  | 0.887 | 0.879 | 1.09 | 0.753 |  |  |  |  |  |  |  |  | 0.408 | 0.386 | 0.382 | 0.165 |
| EKVX | 0.316 | 0.393 | 0.319 | 0.278 | 0.986 | 0.922 | 1.07 | 0.891 | 0.407 | 0.412 | 0.395 | 0.301 | 0.571 | 0.52 | 0.474 | 0.526 | 0.826 | 0.926 | 1.04 | 0.881 |
| EMC-BAC-2 | 0.873 | 0.857 | 0.899 | 0.732 | 0.799 | 0.815 | 0.903 | 0.787 | 0.525 | 0.472 | 0.517 | 0.546 | 0.345 | 0.305 | 0.327 | 0.371 | 1.16 | 1.14 | 1.14 | 1.17 |
| EPLC-272H | 0.292 | 0.333 | 0.268 | 0.278 | 1.25 | 1.22 | 1.02 | 1.1 | 0.326 | 0.322 | 0.316 | 0.346 | 0.384 | 0.411 | 0.453 | 0.37 | 1.08 | 1.06 | 1.22 | 1.02 |
| H3255 | 0.593 | 0.607 | 0.554 | 0.537 | 0.983 | 0.992 | 1.04 | 0.998 | 0.312 | 0.316 | 0.327 | 0.3 | 0.401 | 0.5 | 0.448 | 0.342 | 0.517 | 0.59 | 0.669 | 0.544 |
| HARA | 0.686 | 0.916 | 0.522 | 0.746 | 0.798 | 0.889 | 1 | 0.948 | 0.21 | 0.312 | 0.252 | 0.278 | 0.275 | 0.271 | 0.255 | 0.266 | 1.13 | 1.08 | 1.24 | 1.15 |
